Assay results: patent US4416870A, “Antibiotic compound, its production and its medicinal use” (Bayer Aktiengesellschaft, priority 1981, dated 1983)
*1 amine or outer side, *2 acyl side, *3 side chain or, on linkers, in order; H or OH if unused. Where a SMILES comes first, the peptide text is derived from it. [ ]: non-standard residue; d: D form. ξ: configuration not given here. X1 = Cn1c(=O)ccn(C2SC(C(O)C(N[*:1])C(=O)[*:2])C(O)C2O)c1=O; ξOrn(N(OH)Ac) = CC(=O)N(O)CCCC(N)C(=O)O; ξS = NC(CO)C(=O)O

How the values were obtained:
[1] = physchem; settings: organic solvent or mixture
[2] = test system: Klebsiella pneumoniae 63; test: Animal test (mice), ED100 after intraperitoneal infection and subcutaneous treatment (Example B); assay type: in vivo, mice infected with Klebsiella pneumoniae; settings: sc, dose at which all infected and treated animals survive
Procedure: (§1) BAYi 3265 component A animal test (mice) | ED100 after intraperitoneal | infection and subcutaneous |Infecting germ treatment in mg/kg The animals were infected with a quantity of bacteria, which quantity led to the death of the control animals within 24 hours. The ED100 was the dose which allowed all infected and treated animals to survive.

[3] = test system: E. coli 205 Kn; test: as above; assay type: in vivo, mice infected with E. coli; settings: Escherichia coli, sc, dose at which all infected and treated animals survive
Procedure: as §1

[4] = test system: E. coli Neumann; test: as above; assay type: in vivo, mice infected with E. coli; settings: Escherichia coli, sc, dose at which all infected and treated animals survive
Procedure: as §1

[5] = test system: E. coli Neumann; test: White mouse, ED100 (complete cure) on infection with E. coli Neumann, single subcutaneous application; assay type: in vivo, white mouse infected with E. coli; settings: Escherichia coli, sc, 0.5 h, once, 30 minutes after infection, subcutaneously
Procedure: For the white mouse, an ED100 (complete cure) is found in vivo, at 3 mg of antibiotic/kg of body weight, on infection with E. coli Neumann; therapy: application once, 30 minutes after infection, subcutaneously.

solubility ([1]; chloroform): < 100 µg/mL
solubility ([1]; dimethylformamide): < 10000 µg/mL
solubility ([1]; dimethylsulphoxide): < 10000 µg/mL
solubility ([1]; ether): < 100 µg/mL
solubility ([1]; ethyl acetate): < 100 µg/mL
solubility ([1]; methanol): < 10000 µg/mL
solubility ([1]; petroleum ether): < 100 µg/mL
Compound: CC(=O)N(O)CCCC(N)C(=O)NC(CCCN(O)C(C)=O)C(=O)NC(CCCN(O)C(C)=O)C(=O)NC(CO)C(=O)NC(C(=O)O)C(O)C1SC(n2ccc(=O)n(C)c2=O)C(O)C1O (centres unmarked) [BAYi 3265 Component A] (H-[ξOrn(N(OH)Ac)][ξOrn(N(OH)Ac)][ξOrn(N(OH)Ac)][ξS][X1]-OH)
ED100 [2]: 0.2 mg/kg
ED100 [3]: 0.1 mg/kg
ED100 [4]: 0.5 mg/kg
ED100 [5]: 3 mg/kg
